# Data from ChEMBL document CHEMBL1201862, “PubChem BioAssay data set” (2004).
# Active and inactive are the calls of the source.
# Key:
# A-375 [1] = test: proliferation inhibition in MITF-low A375 cells – cell-based, cherry-pick samples, set 2, counter-screen for MITF modulator project, dose response (AID 540335); format: functional; details: Homo sapiens
# [2] = target: T1, Microphthalmia-associated transcription factor (Homo sapiens, UniProt O75030); test: reducers of TRPM1 reporter luminescence, concentration series – cell-based, SK-MEL-5, cherry-picked, set 3, MITF inhibitor project, dose response (AID 493073); format: functional;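 note: SK-MEL-5 melanoma cells with luciferase driven by the MITF target TRPM1 promoter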
# T1 sequence (O75030 whole entry): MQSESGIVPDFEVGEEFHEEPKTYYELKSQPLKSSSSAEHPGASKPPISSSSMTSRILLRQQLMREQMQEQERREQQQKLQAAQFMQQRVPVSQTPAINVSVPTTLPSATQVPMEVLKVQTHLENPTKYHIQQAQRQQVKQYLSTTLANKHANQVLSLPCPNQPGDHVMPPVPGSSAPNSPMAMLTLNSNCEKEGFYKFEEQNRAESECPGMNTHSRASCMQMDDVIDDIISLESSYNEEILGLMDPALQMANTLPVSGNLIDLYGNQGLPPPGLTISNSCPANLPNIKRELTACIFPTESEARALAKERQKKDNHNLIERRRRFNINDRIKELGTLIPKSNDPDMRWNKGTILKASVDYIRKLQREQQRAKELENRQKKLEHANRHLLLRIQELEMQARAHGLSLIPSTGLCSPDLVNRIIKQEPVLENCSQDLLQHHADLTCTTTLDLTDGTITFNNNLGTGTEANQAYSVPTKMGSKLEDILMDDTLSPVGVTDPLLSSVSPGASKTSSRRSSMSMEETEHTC
# [3] = target: T2, Heat shock factor protein 1 (Mus musculus, UniProt P38532); test: decrease of HSF1-responsive luciferase luminescence – cell-based, NIH3T3, dose retest, confirmation (AID 2382); format: functional;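 note: NIH3T3 fibroblasts with HSF1-driven luciferase reporter stressed by proteasome inhibitor MG132; luminescence from HSF1-driven luciferase expression after 8 hours of MG132 stress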
# T2 sequence (P38532 whole entry): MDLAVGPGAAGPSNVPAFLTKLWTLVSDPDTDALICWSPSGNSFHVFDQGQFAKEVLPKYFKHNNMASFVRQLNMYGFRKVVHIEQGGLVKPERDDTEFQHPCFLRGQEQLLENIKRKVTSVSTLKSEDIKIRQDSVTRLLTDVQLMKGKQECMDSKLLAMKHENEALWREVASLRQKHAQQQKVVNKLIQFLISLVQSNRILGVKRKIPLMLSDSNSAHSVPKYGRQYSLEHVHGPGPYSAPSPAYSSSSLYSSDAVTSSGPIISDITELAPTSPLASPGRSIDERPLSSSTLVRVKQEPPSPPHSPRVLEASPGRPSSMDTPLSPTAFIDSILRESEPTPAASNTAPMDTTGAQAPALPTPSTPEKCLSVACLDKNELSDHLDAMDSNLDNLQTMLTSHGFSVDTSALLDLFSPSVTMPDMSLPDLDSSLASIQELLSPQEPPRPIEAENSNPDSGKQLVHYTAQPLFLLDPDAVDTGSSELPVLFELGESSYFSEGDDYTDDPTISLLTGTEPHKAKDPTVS
# A-375 [4] = test: MITF: Counter assay: A375 proliferation Measured in Cell-Based System Using Plate Reader - 2084-03_Inhibitor_Dose_DryPowder_Activity. [Related pubchem assays (depositor defined):AID488944]; format: functional; details: Homo sapiens
# HEK293 [5] = test: SAR Analysis of small molecule inhibitors of B-cell specific antigen receptor-induced NF-kB activation in a HEK-293T cell line using a luminescence assay - Set 2. [Related pubchem assays (depositor defined):AID435022, AID435025, AID489021]; format: functional, cell-based; details: Homo sapiens
# Jurkat = test: SAR Analysis of small molecule inhibitors of […] specific antigen receptor-induced NF-kB activation in a Jurkat cell line using a luminescence assay - Set 3. [Related pubchem assays (depositor defined):AID435022, AID435025, AID465]; format: functional, cell-based; details: Homo sapiens
# HEK293 [6] = test: HEK293T cell viability loss, resazurin readout – resazurin fluorescence, cytotoxicity control for NF-kB activator project, SAR follow-up (AID 493251); format: functional, cell-based; details: Homo sapiens
# [7] = target: Dual specificity protein phosphatase 3 (Homo sapiens, UniProt P51452); test: SAR VHR1 Fluorescent Assay for In Vitro dose response studies Set 3. [Related pubchem assays (depositor defined):AID1654, AID1661, AID1878]; format: functional
# [8] = target: T3, Kappa-type opioid receptor (Homo sapiens, UniProt P41145); format: functional
# [9] = alpha-synuclein stem-loop luciferase translation blockers – H4 neuroglioma cells, luminescence, confirmation (AID 1988); format: functional, cell-based
# [10] = target: T4, Delta-type opioid receptor (Homo sapiens, UniProt P41143); test: HTS Image-Based Screen for Antagonists of the DOR Receptor. [Related pubchem assays (depositor defined):AID1777, AID1785, AID1786, AID2133]; format: functional
# Mu-type opioid receptor = Mu-type opioid receptor (Homo sapiens, UniProt P35372); test: HTS Image-Based Screen for Agonists of the MOR Receptor. [Related pubchem assays (depositor defined):AID1777, AID1785, AID1786, AID2133]; format: functional;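 note: imaging of beta-arrestin GFP recruitment into spots after receptor activation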
# [11] = Luminescence Cell-Based Dose Response HTS to Identify Inhibitors of 5'UTR Stem-Loop Driven Prion Protein mRNA Translation in H4 Neuroglioblastoma Cells. [Related pubchem assays: 1827 (Project Summary), 1813 (Primary HTS)]; format: functional
# Beta-galactosidase = Beta-galactosidase (Escherichia coli, UniProt Q8VNN2); format: functional
# [12] = target: T4, Delta-type opioid receptor; test: HTS Image-Based Screen for Agonists of the DOR Receptor. [Related pubchem assays (depositor defined):AID1777, AID1786, AID2133]; format: functional
# [13] = luciferase reporter signal suppression in cells – H4 neuroglioma cells, luminescence, dose response (AID 1990); format: functional, cell-based
# [14] = target: T3, Kappa-type opioid receptor; format: functional; remark: listed apart in the source
# CAAX prenyl protease 2 [15] = target: T5, CAAX prenyl protease 2 (Saccharomyces cerevisiae S288c, UniProt Q03530); format: biochemical
# T5 sequence (Q03530 whole entry): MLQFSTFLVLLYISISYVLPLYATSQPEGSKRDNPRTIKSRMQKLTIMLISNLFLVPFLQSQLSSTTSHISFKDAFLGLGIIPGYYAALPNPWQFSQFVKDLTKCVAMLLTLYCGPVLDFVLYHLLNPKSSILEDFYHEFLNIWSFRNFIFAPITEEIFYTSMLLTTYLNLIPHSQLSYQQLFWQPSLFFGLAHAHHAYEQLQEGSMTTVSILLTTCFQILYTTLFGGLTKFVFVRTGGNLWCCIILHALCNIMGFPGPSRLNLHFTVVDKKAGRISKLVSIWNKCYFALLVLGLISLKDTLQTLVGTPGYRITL
# CAAX prenyl protease 1 = CAAX prenyl protease 1 (Saccharomyces cerevisiae S288c, UniProt P47154); test: yeast CAAX protease Ste24 inhibition – biochemical, S. cerevisiae, plate reader, cherry-pick, dose response (AID 488815)
# Trypsin = Trypsin (Sus scrofa, UniProt P00761); test: trypsin protease activity blockade – biochemical, quenched peptide fluorescence, cherry-pick, selectivity assay for Rce1 protease inhibitor project, dose response (AID 488789)
# CAAX prenyl protease 2 [16] = target: T6, CAAX prenyl protease 2 (Homo sapiens, UniProt Q9Y256); test: inhibition of Ras-converting CAAX protease Rce1 – biochemical, yeast membranes, quenched-peptide fluorescence, cherry-pick, dose response (AID 588849)
# T6 sequence (Q9Y256 whole entry): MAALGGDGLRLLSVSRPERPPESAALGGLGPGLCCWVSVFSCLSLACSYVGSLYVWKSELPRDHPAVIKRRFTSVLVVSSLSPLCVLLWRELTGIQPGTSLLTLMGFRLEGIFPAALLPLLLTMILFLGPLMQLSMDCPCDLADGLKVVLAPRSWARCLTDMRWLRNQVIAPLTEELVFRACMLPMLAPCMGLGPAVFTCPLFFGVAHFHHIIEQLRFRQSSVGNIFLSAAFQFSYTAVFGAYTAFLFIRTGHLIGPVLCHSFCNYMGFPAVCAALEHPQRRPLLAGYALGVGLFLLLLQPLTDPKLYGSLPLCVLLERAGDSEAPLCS
# [17] = Luminescence Cell-Based Dose Retest to Confirm Inhibitors of Cancer Stem Cells. [Related pubchem assays (depositor defined):AID2717, AID2721]; format: functional; details: Homo sapiens
# H9c2 = test: cells; format: functional, cell-based; details: Rattus norvegicus, H9c2, Myocardium;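 note: confirmatory concentration-response retest of ultra-high-throughput screening hits for modulation of myocardial damage; cell death induced by hydrogen peroxide oxidative stress; compound pretreatment for 60 min then peroxide exposure for 2 h; potency is for protecting the cells against peroxide damage rather than for killing them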
# Cysteine protease ATG4B = Cysteine protease ATG4B (Homo sapiens, UniProt Q9Y4P1); format: functional;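 note: Fluorescence-based dose-response confirmation assay measuring inhibition of ATG4B activity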
# Phospholipase A2 = Phospholipase A2 (Homo sapiens, UniProt P04054); format: functional;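 note: confirmatory dose-response counterscreen on phospholipase A2, testing hits that came from an ultra-high-throughput screen for ATG4B inhibitors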
# Keap1/Nrf2 = Keap1/Nrf2 (Homo sapiens, UniProt Q14145); test: disruptors of Keap1 binding to Nrf2 peptide – biochemical, fluorescence polarization, cherry-picked samples, dose response (AID 588683)
# [18] = target: T7, RNA-binding protein pos-1 (Caenorhabditis elegans, UniProt G5EF15); test: disruptors of C. elegans POS-1 RNA interaction – biochemical, fluorescence polarization, dose response (AID 1964);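 note: purified POS-1 fused to maltose binding protein made in E. coli; potency of compounds blocking POS-1 binding to fluorescent RNA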
# T7 sequence (G5EF15 whole entry): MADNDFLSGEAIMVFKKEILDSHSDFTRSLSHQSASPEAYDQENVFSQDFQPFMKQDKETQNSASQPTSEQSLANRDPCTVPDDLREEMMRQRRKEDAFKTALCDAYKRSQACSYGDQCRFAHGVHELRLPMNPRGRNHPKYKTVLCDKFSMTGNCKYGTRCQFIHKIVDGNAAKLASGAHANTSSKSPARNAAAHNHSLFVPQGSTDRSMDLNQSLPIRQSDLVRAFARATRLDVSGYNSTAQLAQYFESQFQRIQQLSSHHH
# [19] = target: T8, Zinc finger protein mex-5 (Caenorhabditis elegans, UniProt Q9XUB2); test: potency of MEX-5 RNA-binding blockers – biochemical, C. elegans, fluorescence polarization, dose response (AID 1960)
# T8 sequence (Q9XUB2 whole entry): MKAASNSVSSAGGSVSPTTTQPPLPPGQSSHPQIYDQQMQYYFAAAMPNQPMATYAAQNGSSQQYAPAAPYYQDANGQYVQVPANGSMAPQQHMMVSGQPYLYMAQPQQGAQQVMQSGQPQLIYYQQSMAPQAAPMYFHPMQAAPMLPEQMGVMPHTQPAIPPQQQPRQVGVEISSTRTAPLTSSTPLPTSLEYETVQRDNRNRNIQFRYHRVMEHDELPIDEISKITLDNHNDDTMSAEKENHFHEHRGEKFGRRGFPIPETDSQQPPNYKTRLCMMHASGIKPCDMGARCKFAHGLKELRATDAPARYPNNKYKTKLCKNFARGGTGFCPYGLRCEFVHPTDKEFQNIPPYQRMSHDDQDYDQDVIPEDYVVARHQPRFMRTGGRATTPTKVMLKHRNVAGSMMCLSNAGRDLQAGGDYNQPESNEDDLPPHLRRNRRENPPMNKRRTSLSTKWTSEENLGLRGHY
# Cytochrome P450 2C19 = Cytochrome P450 2C19 (Homo sapiens, UniProt P33261); test: Cytochrome panel assay with activity outcomes. Panel member name: p450-cyp2c19 Compounds with AC50 equal or less than 10 uM are considered active; format: functional; details: read-out: AC50
# Cytochrome P450 3A4 = Cytochrome P450 3A4 (Homo sapiens, UniProt P08684);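 note: CYP3A4 tested as one member of a cytochrome P450 panel screen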
# Sequence of Cytochrome P450 3A4 (P08684 whole entry): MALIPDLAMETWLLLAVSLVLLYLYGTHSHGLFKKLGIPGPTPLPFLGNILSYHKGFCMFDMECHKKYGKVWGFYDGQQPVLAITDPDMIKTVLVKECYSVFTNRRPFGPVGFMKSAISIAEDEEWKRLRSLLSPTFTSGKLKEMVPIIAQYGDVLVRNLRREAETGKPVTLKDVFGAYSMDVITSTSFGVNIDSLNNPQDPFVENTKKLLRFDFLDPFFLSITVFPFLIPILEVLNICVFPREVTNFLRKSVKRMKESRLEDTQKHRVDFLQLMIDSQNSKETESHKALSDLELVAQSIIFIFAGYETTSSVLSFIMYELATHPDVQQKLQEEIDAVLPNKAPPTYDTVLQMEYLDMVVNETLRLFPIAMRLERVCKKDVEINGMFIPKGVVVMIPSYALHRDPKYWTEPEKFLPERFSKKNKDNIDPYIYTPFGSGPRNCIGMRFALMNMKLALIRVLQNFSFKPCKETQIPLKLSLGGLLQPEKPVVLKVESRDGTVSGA
# T4 sequence (P41143 whole entry): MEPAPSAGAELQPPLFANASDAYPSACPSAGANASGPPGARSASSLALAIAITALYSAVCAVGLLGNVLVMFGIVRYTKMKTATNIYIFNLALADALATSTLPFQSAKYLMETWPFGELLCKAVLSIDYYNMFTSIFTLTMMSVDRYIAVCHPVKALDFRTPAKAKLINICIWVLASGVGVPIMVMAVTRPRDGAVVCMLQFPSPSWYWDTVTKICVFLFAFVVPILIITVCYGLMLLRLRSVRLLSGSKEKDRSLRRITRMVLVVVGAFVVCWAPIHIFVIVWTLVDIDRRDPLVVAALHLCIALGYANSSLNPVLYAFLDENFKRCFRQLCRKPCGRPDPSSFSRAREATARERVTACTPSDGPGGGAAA
# T3 sequence (P41145 whole entry): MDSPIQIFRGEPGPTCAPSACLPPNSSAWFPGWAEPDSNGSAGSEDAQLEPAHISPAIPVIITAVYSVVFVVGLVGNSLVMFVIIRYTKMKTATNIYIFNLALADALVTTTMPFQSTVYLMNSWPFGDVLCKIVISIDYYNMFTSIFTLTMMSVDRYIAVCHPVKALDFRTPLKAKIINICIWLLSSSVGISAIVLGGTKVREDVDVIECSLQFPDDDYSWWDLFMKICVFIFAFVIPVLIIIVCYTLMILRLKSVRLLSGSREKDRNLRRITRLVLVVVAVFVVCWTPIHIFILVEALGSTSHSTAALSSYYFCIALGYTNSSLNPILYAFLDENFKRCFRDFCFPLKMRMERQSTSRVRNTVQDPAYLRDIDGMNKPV
# Sequence of CAAX prenyl protease 1 (P47154 whole entry): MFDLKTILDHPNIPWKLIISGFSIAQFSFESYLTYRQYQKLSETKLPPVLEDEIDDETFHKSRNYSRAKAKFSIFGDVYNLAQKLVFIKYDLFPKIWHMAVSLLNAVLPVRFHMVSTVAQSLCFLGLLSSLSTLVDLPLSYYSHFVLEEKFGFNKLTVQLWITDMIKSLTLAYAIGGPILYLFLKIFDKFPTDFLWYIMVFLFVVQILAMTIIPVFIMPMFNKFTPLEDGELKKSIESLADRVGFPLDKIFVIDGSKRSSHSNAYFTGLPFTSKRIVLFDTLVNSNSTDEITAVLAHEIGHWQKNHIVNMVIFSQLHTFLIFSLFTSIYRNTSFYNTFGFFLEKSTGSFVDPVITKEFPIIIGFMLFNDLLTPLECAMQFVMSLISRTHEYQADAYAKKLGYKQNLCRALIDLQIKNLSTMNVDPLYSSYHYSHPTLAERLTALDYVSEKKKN
# Sequence of Mu-type opioid receptor (P35372 whole entry): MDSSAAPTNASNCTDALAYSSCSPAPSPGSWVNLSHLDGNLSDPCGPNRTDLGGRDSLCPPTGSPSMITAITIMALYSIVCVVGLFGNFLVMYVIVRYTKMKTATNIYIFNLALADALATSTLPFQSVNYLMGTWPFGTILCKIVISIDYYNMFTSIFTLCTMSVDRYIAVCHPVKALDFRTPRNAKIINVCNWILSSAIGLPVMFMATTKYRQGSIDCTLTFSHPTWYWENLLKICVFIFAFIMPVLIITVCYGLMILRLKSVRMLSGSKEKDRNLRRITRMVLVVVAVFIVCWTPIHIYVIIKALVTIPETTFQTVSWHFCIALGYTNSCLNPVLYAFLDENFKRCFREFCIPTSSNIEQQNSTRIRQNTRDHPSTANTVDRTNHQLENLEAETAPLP
# Sequence of Beta-galactosidase (Q8VNN2 whole entry): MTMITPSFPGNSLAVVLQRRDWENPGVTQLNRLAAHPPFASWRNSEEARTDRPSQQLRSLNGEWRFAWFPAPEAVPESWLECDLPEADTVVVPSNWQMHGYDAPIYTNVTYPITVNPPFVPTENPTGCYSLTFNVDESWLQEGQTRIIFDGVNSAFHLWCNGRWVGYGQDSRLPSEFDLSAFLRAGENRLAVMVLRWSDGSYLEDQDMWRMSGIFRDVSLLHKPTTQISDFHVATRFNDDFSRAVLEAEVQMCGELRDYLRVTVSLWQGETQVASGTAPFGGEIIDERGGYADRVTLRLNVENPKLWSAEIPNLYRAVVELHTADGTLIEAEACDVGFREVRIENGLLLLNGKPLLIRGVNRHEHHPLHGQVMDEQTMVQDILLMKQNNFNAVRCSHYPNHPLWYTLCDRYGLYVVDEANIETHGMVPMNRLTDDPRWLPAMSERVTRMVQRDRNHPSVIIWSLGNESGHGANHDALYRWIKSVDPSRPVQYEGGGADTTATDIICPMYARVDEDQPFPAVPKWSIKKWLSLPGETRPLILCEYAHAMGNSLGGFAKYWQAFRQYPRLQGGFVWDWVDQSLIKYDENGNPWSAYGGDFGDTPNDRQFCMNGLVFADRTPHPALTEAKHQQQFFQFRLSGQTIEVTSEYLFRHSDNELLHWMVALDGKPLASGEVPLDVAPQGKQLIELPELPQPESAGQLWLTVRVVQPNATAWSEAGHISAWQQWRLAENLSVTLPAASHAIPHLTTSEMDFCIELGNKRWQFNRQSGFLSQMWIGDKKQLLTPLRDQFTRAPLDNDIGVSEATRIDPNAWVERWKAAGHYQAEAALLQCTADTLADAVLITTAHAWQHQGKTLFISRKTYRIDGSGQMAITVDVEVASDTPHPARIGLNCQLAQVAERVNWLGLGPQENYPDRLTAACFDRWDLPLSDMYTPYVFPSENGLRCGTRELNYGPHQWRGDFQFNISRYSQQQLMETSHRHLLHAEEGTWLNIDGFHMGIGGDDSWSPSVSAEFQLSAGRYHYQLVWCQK
# Sequence of Phospholipase A2 (P04054 whole entry): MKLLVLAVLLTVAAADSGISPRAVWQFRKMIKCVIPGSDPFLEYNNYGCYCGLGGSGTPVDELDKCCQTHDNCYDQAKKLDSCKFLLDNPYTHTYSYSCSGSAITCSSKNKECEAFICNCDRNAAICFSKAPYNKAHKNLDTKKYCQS
# Sequence of Keap1/Nrf2 (Q16236 whole entry, the tested form may be a part): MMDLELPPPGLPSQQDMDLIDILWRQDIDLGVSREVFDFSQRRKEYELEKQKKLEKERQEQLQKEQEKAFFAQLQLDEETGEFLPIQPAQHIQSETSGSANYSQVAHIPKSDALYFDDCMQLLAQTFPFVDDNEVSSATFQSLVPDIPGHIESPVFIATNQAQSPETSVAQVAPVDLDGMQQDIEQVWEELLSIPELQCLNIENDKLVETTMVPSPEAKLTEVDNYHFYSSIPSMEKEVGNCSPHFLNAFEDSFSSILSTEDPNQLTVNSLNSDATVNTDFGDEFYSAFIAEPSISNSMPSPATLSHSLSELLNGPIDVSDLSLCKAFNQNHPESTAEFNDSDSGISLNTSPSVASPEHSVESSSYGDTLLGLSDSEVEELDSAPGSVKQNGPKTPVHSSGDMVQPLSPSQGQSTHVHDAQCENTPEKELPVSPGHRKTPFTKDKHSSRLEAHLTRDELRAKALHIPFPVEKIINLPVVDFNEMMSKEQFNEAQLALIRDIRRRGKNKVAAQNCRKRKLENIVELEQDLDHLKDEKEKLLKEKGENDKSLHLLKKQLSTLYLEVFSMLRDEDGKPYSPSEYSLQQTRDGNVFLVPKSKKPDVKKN
# Sequence of Keap1/Nrf2 (Q14145 whole entry, the tested form may be a part): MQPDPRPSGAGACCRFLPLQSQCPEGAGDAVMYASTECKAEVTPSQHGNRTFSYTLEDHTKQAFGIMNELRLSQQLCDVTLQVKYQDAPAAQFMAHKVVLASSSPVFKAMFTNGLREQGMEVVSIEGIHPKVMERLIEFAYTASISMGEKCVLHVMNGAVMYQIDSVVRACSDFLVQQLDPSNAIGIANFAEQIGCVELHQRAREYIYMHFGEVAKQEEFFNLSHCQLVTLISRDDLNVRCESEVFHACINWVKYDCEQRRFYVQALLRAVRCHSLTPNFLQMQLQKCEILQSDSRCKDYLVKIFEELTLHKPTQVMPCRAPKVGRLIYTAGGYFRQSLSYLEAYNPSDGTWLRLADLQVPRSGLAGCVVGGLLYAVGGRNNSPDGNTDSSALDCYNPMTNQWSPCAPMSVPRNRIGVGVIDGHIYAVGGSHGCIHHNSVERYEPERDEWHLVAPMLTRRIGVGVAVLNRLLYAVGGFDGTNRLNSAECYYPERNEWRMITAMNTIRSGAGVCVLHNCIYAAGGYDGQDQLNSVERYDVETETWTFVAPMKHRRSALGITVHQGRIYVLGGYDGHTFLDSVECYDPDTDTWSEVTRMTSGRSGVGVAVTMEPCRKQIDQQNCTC
# Sequence of Trypsin (P00761 whole entry): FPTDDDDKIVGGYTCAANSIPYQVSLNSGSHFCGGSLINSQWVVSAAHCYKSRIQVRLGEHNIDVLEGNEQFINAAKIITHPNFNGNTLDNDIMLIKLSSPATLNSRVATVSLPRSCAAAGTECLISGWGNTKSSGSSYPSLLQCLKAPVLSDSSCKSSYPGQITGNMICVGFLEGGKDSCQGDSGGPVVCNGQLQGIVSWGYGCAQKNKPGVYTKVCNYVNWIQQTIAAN
# Sequence of Dual specificity protein phosphatase 3 (P51452 whole entry): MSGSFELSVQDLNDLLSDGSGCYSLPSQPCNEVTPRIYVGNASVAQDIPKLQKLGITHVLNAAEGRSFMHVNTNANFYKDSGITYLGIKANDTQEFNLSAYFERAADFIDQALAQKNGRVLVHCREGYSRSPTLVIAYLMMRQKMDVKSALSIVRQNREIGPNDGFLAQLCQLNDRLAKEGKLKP
smiles,measurement,setting,value
C=CCNC1=NN=C(c2ccc3c(c2)OCCO3)CS1,AC50,A-375 [1],48.9 µM (active)
same,AC50,[2],3.37 µM (active)
same,EC50,[3],5.84 µM (active)
CN(C)c1ccc(/C=N/N2CCN(c3ccccn3)CC2)cc1,AC50,A-375 [4],> 35 µM (active)
same,AC50,A-375 [1],> 35 µM (active)
CC(C)(C)c1ccc(-c2noc(CCC(=O)N3CCCCC3)n2)cc1,IC50,HEK293 [5],17.4 µM (active)
same,IC50,Jurkat,11.6 µM (active)
same,IC50,HEK293 [6],39.7 µM (inactive)
COc1ccc(C(=O)NNc2nc3c(OC)cccc3s2)cc1,IC50,[7],> 66 µM (inactive)
O=C(NNC1=Nc2ccccc2SC1)c1ccc(Cl)cc1,IC50,[8],> 32 µM
same,EC50,[9],8.56 µM (active)
same,IC50,[10],> 32 µM (inactive)
same,EC50,Mu-type opioid receptor,> 32 µM (inactive)
same,EC50,[11],18.4 µM (active)
same,EC50,Beta-galactosidase,> 31.5 µM (inactive)
same,EC50,[12],> 32 µM (inactive)
same,EC50,[13],11 µM (active)
same,IC50,[14],10.5 µM (active)
COC(=O)Cc1c(C)c2ccc(OCc3nn[nH]n3)c(C)c2oc1=O,AC50,CAAX prenyl protease 2 [15],24.6 µM (active)
same,AC50,CAAX prenyl protease 1,12.6 µM (active)
same,AC50,Trypsin,21.3 µM (active)
same,AC50,CAAX prenyl protease 2 [16],29.6 µM (active)
O=[N+]([O-])c1ccc(S(=O)(=O)CC(CN2CCCCC2)N2CCCCC2)cc1 (stereo not given),AC50,A-375 [4],19.9 µM (active)
same,AC50,[17],2.17 µM (active)
same,AC50,[2],4.88 µM (active)
O=C(Cn1c2ccccc2c(=O)c2ccccc21)Nc1ccccc1F,AC50,CAAX prenyl protease 1,6.04 µM (active)
same,AC50,CAAX prenyl protease 2 [16],0.345 µM (active)
CC(OC(=O)c1cc2c(ccc3ccccc32)oc1=O)c1nc2ccccc2s1 (stereo not given),IC50,[8],> 32 µM
same,IC50,[10],> 32 µM (inactive)
same,EC50,Mu-type opioid receptor,> 32 µM (inactive)
same,EC50,Beta-galactosidase,> 31.5 µM (inactive)
same,EC50,[12],> 32 µM (inactive)
same,IC50,H9c2,> 79 µM (inactive)
same,IC50,[14],10.5 µM (active)
COc1ccc(OC)c(-c2cc(C(=O)N3CCCc4ccccc43)no2)c1,IC50,Cysteine protease ATG4B,20.1 µM (inactive)
same,IC50,Phospholipase A2,14.8 µM (active)
CCOc1cc(C2C(C#N)=C(N)OC(C)=C2C(C)=O)cc(Br)c1O (stereo not given),AC50,Keap1/Nrf2,> 52 µM (inactive)
same,EC50,[18],12.3 µM (inconclusive)
same,EC50,[19],12.3 µM (active)
COc1ccc(-c2cc(C(=O)Nc3cnn(Cc4ccccc4C)c3)no2)cc1OC,AC50,Cytochrome P450 2C19,25.1 µM (inconclusive)
same,AC50,Cytochrome P450 3A4,inconclusive
CCOc1ccc(-c2nc(CSCC(=O)N3CCC(C)CC3)c(C)o2)cc1,IC50,HEK293 [5],9.87 µM (active)
same,IC50,Jurkat,32.6 µM (inactive)
same,IC50,HEK293 [6],30 µM (inactive)
CN1CCN(c2ncc3nc(-c4ccc(Cl)cc4)c(=O)n(C)c3n2)CC1,AC50,Cytochrome P450 3A4,inconclusive
